Reference: patent US9499472B2, “Aspartylamide inhibitors of excitatory amino acid transporters” (priority 2012, dated 2016)
Read-outs that look alike come from different tables or passages of the source.

Columns and labels:
[1] = brain penetration and metabolism in live mice, LC/MS-MS of compound 6 in brain and plasma; type: in vivo, C57BL/6 mice; conditions: for levels of compound 6 (hydrolyzed compound 1) per gram brain tissue: mouse, 10 mg/Kg tail vein injection, all time points 1-90 min, ester vs acid administered
Protocol: A series of separate experiments were performed with compounds 1 or 6 in groups of C57BL/6 mice (6-8 weeks old; Charles River, Wilmington, Mass.) as a function of dose and time, where concentrations of compound 6 in brain and plasma (nanogram of compound 6/g of brain tissue or blood) were measured by liquid chromatography/mass spectrometry (LC/MS-MS) detection by literature methods (Chernet et al., Life Sci. 78:340-346 (2005)). In general, doses of compounds 1 and 6 were prepared at 1, 5 or 10 mg/Kg in a homogenous solution composed of 3% dimethyl sulfoxide and 97% […] pH 7.4. Doses (0.25 mL volume) were administered by tail vein injection to groups (n≧3) of mice. Mice were sacrificed at 1, 3 10, 30, 60, 90 and 100 minutes post-injection. For some groups of mice, brains were removed, weighed, homogenized (polytron, in SDS and water) extracted with acetonitrile and then centrifuged where the acetonitrile supernatant was collected. For other groups of mice, blood was collected ([…]), weighed, and then the samples were centrifuged where the supernatant plasma was collected and extracted with acetonitrile with and without 0.1% formic acid. To validate the extraction methods, other control (non-dosed) mice brains and plasma samples were spiked with various amounts (5-25,000 ng) of compound 6 and were processed in a similar fashion and then analyzed as described below. Respective acetonitrile extracts were diluted with methanol and 20 μL portions were then subjected to analytical reverse phase (C-18 analytical column, isocratic acetonitrile/water solvent) high performance liquid chromatography (HPLC), where the HPLC fractions were quantified using a mass spectrometer set to selectively monitor the mass-to-charge ratio of singly protonated compound 6 (C17H16FN2O3, exact mass: 315.11). In other analyses, a standard curve of compound 6 was constructed (5-25,000 nanogram mass range) and analyzed similarly. Quantities (nanograms, ng) of compound 6 from the dosed treated mouse brain and plasma samples were determined by correlation to the quantitative control spike method of detection (above) and also confirmed by interpolations against the compound 6 standard curve. Data was imported into Microsoft Excel and plotted as nanogram (ng) of detected hydrolyzed compound 1 (that is, compound 6/gram (g) brain tissue or plasma versus time (minutes). The data from the mouse experiments are shown in FIGS. 4 and 5.
Shown in FIG. 4 are the results from 10 mg/Kg administration of the ester compound 1 (shown as black bars) or the acid compound 6 (shown as grey bars) relative to the amounts of hydrolyzed compound 1 (that is, compound 6) per gram brain tissue at time points 1, 3, 10, 60 and 90 minutes post-injection. […]

[2] = test system: panel of central nervous system protein binding sites defined in FIG. 8; assay: competitive radioligand binding panel of central nervous system protein binding sites (FIG. 8); design: key: No Activity: no greater than or equal to 50% inhibition of binding; conditions: 1 micromole assay concentration, duplicate
Protocol: In separate in vitro competitive pharmacological assays performed in duplicate, compounds 1 and 6 at 1 micromole concentrations were evaluated against the panel of central nervous system protein binding sites that are defined in FIG. 8. As noted in FIG. 8, the assays utilized specific established radioligands for the respective competition binding assays, and respective assay ligand standards that afforded respective pharmacological inhibition binding curves of half maximal inhibitory concentration (IC50) values. […] In other words, the concentrations of compounds 1 and 6 that would be required to inhibit the FIG. 8 radioligand bindings at their respective protein sites would have to be greater than 1 micromole concentration.

EAAT2 [3] = biological target: T1, EAAT2 (Homo sapiens, UniProt P43004); assay: [3H]D-aspartate uptake by EAAT2 transiently expressed in C17.2 cells; type: cell-based
T1 construct: expressed in transfected cells; host or cells: C17.2 cells, transient transfection with FuGENE6
Protocol: The excitatory amino acid transporter 2 (EAAT2) was transiently expressed in C17.2 cells using an AAV-based vector pAM-CAG-EAAT3-WPRE as described in the literature (Esslinger). Cells between passages 10-20 were seeded at 5×10^4 cells/well in 12 well plates and grown in complete DMEM supplemented with 10% fetal bovine serum, 1 mM sodium pyruvate, 0.1 mM nonessential amino acids solution. At 24 hours after plating, cells were transfected using FuGENE6 Transfection Reagent (Roche, Indianapolis, Ind.) in a ratio of 4 μL of FuGENE6 to 3 μg of purified plasmid DNA in accordance with manufacturers instructions. The cells were used in the transport assays 24 hours following transfection as described by Esslinger. Briefly, transfected C17.2 cells were grown in DMEM containing 10% FCS in a humid atmosphere of 5% CO2. Near-confluent cells (plated at 5×10^4 cells/well) were rinsed with a physiological buffer (138 mM NaCl, 11 mM D-glucose, 5.3 mM KCl, 0.4 mM KH2PO4, 0.3 mM Na2HPO4, 1.1 mM CaCl2, 0.7 mM MgSO4, 10 mM HEPES, pH 7.4) and allowed to pre-incubate at 37° C. for 5 minutes.
Three types of binding experiments were performed: a) single concentrations of compounds 1 or 6 were added simultaneously to the cell assay with 1 μM ^3H-D-aspartate, b) six or more concentrations of compound 6 were added simultaneously to the cell assay with 1 μM ^3H-D-aspartate; and c) six or more concentrations of compound 6 were pre-incubated with cells for 25 minutes, after which 1 μM ^3H-D-aspartate was added to the cell to initiate the assay. […] The cells were dissolved in 0.4 N NaOH for 24 hours and analyzed for radioactivity by liquid scintillation counting and protein by the BCA (Pierce) method. For each type of uptake assay experiment, they were conducted with at least 2 cell-containing tissue culture wells, with duplicate samples from each well analyzed for radioactivity. […] Initial studies confirmed that uptake quantified in this manner was linear with time and protein levels and also that uptake in un-transfected C17.2 cells was indistinguishable from background. […]

EAAT2 [4] = biological target: T2, EAAT2 (Rattus norvegicus, UniProt P31596); assay: tracer PET brain imaging and quantitative EAAT2 detection in rat; type: in vivo, rat (Sprague-Dawley); conditions: 5 mg/Kg dose 10 minutes before tracer 2, all CNS ROIs, all times post-injection
T2 construct: from tissue; host or cells: live male Sprague-Dawley rat brain and spinal cord (in vivo PET)
Protocol: As an example of the tracer compound of the invention, rodent (rat) quantitative in vivo PET imaging trials are presented employing the tracer compound 2 of Example VI. The in vivo PET imaging was performed in parallel with magnetic resonance (MR) and computed axial tomography (CAT, CT) imaging methods, in which the latter two imaging methods afforded anatomical tissue information for co-registration to the acquired tracer quantitative PET data. […] Two rodent imaging trials (A-B) were performed employing two age-matched male Sprague-Dawley subjects. The age of the subjects were nearly identical to those described in the most recent rat (Sprague-Dawley, amongst others) stereotaxic brain atlas (Paxinos et al., “[…],” Academic Press: Burlington, Mass. (2007))
providing high confidence levels for identification and definition of explicit brain cerebral fine tissue structures as regions of interest (ROIs) for quantitative analysis, and as a function of three-dimensional (3D) co-registration of cerebral soft tissue identification by MR scan analysis and landmark anatomical features from CAT data.
The PET data were acquired with a Siemens Inveon microPET scanner (ca. 1.5 mm spatial resolution). Rodent subject tail vein tracer 2 injection volumes (Table 1) used the tracer 2 dose formulation described in Example VI. […]

T1 sequence (P43004 whole entry): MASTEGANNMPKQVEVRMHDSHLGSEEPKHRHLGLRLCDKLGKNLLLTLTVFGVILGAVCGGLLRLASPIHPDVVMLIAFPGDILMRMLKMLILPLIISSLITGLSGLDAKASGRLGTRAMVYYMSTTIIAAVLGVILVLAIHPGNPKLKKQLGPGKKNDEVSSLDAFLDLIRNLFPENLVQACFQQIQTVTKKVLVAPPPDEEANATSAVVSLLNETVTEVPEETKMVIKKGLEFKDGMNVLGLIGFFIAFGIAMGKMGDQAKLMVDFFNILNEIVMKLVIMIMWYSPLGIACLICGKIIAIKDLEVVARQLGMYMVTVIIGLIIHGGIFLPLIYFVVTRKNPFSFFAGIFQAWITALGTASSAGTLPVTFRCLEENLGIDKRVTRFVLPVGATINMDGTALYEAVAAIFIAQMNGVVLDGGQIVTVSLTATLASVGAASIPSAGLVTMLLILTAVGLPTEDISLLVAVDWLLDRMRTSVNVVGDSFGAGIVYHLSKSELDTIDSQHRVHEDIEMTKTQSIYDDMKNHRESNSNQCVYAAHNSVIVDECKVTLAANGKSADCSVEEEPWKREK
T2 sequence (P31596 whole entry): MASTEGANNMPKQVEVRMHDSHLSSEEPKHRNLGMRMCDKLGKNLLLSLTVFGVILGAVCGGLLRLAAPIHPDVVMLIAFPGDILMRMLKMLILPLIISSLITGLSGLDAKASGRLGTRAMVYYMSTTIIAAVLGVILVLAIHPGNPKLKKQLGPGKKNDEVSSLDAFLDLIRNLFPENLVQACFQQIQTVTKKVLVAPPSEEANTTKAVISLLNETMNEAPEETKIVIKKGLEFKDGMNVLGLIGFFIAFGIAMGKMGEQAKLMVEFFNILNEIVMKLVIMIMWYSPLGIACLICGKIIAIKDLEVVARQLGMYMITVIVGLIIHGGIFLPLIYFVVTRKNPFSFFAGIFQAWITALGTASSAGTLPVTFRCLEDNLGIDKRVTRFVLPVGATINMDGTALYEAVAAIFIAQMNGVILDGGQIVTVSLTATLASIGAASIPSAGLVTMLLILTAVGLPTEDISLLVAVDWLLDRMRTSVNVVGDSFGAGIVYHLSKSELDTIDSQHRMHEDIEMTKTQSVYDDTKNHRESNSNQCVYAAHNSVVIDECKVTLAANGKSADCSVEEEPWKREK

Compound	amount of compound 6 detected in mouse brain, 5 mg/Kg versus 1 mg/Kg ([1]; mouse brain, 3, 10 and 100 minutes post-injection)	amount of compound 6 detected in plasma, 5 mg/Kg versus 1 mg/Kg ([1]; mouse plasma, 3 and 10 minutes post-injection)	levels of compound 6 (hydrolyzed compound 1) per gram brain tissue [1]	inhibition of binding of FIG. 8 radioligands at their protein binding sites [2]	IC50 (EAAT2 [3]; IC50, EAAT2 interaction, first experimental in vitro conditions (single concentrations, simultaneous addition)) [µM]	inhibition of 1 μM [3H]D-aspartate uptake by EAAT2 (EAAT2 [3]; concentrations up to 10 μM, added simultaneously with 3H-D-aspartate, 5 min)	reduction of tissue SUV signals of tracer 2 by pre-administration (challenge) (EAAT2 [4])	inhibition of 1 μM [3H]D-aspartate uptake by EAAT2 (EAAT2 [3])
COC(=O)[C@@H](N)CC(=O)Nc1ccc2c(c1)Cc1cc(F)ccc1-2 [compound 1, (S)-Methyl 2-amino-4-(7-fluoro-9H-fluoren-2-ylamino)-4-oxobutanoate]	dose amount dependence	dose amount dependence	higher levels	No Activity	> 10	little or no inhibition	2-3 fold	–
N[C@@H](CC(=O)Nc1ccc2c(c1)Cc1cc(F)ccc1-2)C(=O)O [compound 6, (S)-2-Amino-4-(7-fluoro-9H-fluoren-2-ylamino)-4-oxo-butanoic acid]	–	–	lower levels	No Activity	–	–	–	almost completely inhibited all uptake
